# Experimental data reported in patent US20140135310A1, “SULPHONAMIDE DERIVATIVES OF ALICYCLIC AMINES FOR THE TREATMENT OF CENTRAL NERVOUS SYSTEM DISEASES” (Adamed Sp. z o.o., priority 2011, published 2014).
# Experiments:
# [1] = molecular target: T1, serotonin transporter (SERT) (Homo sapiens, UniProt P31645); assay: Radioligand binding assay, serotonin transporter (SERT); conditions: for inhibition at 1 µM: binding assay, test compound 1×10^−6 M; for Ki: read-out: Inhibition constants Ki for SERT, SERT
# T1 construct: expressed in transfected cells; host or cells: CHO cells
# T1 sequence (P31645 whole entry): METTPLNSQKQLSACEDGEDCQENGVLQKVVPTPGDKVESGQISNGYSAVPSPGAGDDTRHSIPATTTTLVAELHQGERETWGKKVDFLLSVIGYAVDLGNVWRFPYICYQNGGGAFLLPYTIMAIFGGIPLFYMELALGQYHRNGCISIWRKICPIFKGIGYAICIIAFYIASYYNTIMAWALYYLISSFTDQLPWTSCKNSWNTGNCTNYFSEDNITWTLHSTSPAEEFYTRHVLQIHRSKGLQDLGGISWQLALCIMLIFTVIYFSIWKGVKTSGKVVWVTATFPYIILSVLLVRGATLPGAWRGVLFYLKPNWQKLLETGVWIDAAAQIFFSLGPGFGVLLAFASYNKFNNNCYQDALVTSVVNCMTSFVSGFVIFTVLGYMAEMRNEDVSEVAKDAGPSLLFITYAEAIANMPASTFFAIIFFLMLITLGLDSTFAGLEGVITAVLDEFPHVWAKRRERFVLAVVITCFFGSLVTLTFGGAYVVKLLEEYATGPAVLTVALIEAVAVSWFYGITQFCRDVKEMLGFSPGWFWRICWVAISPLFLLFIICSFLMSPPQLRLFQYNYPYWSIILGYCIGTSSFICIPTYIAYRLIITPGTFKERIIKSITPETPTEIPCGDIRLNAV
# Summary of the method: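 Values are derived from competition curves fitted by the Hill equation to give IC50, then converted to Ki by Cheng-Prusoff with radioligand Kd from Scatchard analysis. Specific binding equals total minus non-specific (excess cold ligand), counted by scintillation, and is also expressed as percent inhibition of control.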
# [2] = molecular target: T2, receptors D4.4 (Homo sapiens, UniProt P21917); assay: Radioligand binding assay, dopaminergic D4 (D4.4) receptors; conditions: test compound 1×10^−6 M
# T2 sequence (P21917 1-419): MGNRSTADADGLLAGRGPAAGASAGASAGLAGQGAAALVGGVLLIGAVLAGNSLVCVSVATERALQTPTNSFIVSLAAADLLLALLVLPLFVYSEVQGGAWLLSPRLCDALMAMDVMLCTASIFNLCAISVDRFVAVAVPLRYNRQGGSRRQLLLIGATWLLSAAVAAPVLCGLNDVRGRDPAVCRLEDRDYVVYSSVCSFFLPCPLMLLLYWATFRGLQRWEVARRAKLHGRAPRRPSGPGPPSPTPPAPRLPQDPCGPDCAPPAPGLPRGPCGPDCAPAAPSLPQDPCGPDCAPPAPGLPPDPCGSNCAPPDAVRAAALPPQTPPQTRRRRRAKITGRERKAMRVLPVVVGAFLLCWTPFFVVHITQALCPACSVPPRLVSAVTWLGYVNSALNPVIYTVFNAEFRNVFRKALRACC
# Summary of the method: (§1)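 Scintillation read-out. Specific = total − nonspecific (excess cold ligand). Data as % of control specific binding / % inhibition; IC50 by Hill fit; Ki = IC50/(1+L/KD), KD from Scatchard plot.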
# [3] = molecular target: dopaminergic receptors D3 (Homo sapiens, UniProt P35462); assay: Radioligand binding assay, dopaminergic D3 receptors; conditions: test compound 1×10^−6 M
# dopaminergic receptors D3, sequence (P35462 whole entry): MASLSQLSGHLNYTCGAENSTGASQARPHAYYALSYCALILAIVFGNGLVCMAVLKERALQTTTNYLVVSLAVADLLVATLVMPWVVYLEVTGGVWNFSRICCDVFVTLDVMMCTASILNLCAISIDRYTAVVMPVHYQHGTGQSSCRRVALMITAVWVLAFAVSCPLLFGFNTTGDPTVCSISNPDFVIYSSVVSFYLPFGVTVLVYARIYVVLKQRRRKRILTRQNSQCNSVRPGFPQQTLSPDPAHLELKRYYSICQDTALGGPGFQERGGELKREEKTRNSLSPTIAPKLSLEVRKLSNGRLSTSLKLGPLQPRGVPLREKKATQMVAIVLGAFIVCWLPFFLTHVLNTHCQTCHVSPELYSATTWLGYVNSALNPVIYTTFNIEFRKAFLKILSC
# Summary of the method: as §1
# [4] = test system: α1 adrenergic receptors (rat cerebral cortex); assay: Radioligand binding assay, adrenergic α1 receptors; conditions: test compound 1×10^−6 M
# Summary of the method: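 Values derive from radioligand displacement, with non-specific binding defined by excess cold ligand and detection by scintillation. Hill-fit IC50s were converted to Ki via Cheng-Prusoff using Scatchard-derived Kd; percent inhibition of control specific binding also reported.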
# [5] = molecular target: T3, 5-HT6 receptor (Homo sapiens, UniProt P50406); assay: Radioligand binding assay, serotoninergic 5-HT6 receptors; conditions: for inhibition at 1 µM: binding assay result in %, Table 5a; for Ki: read-out: Inhibition constants Ki, 5-HT6
# T3 construct: purchased PerkinElmer
# T3 sequence (P50406 whole entry): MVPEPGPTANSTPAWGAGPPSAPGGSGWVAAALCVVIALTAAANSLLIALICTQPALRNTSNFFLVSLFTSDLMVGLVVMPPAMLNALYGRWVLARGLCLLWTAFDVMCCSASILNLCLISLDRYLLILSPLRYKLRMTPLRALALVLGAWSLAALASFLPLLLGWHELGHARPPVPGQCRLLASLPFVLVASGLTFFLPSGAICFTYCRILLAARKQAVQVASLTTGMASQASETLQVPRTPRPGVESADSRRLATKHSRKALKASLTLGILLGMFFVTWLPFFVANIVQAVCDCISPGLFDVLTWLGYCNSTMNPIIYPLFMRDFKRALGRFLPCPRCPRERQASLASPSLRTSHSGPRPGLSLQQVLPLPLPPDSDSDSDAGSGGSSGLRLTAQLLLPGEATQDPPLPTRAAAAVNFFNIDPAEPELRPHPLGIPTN
# Summary of the method: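 Values are Ki from Cheng–Prusoff, taking IC50 from Hill nonlinear regression of competition curves and KD from a Scatchard plot. Specific binding was total minus binding with excess unlabelled ligand. Radioligand displacement was detected by scintillation counting, and data were also reported as percent of control specific binding.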
# [6] = molecular target: T4, H1 histaminergic receptors (Homo sapiens, UniProt P35367); assay: Radioligand binding assay, histaminergic H1 receptors; conditions: human recombinant (HEK-293 cells), [3H]pyrilamine 1 nM
# T4 construct: expressed in transfected cells; host or cells: HEK-293 cells
# T4 sequence (P35367 whole entry): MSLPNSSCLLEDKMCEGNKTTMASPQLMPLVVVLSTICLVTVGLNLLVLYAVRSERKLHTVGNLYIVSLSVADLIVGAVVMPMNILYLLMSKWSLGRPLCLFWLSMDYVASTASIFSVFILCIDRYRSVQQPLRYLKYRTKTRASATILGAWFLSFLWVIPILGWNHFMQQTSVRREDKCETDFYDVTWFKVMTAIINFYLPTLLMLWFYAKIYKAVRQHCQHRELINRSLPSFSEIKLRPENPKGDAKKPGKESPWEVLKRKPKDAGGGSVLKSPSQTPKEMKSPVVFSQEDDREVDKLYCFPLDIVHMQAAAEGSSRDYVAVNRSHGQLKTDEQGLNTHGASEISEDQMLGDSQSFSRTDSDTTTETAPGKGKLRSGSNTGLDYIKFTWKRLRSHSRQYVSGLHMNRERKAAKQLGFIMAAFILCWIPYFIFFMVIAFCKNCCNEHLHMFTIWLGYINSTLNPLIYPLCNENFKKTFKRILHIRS
# Summary of the method: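 Competition binding at human H1 receptors; specific binding taken as total minus non-specific binding in excess unlabelled ligand, scintillation read-out. IC50 from Hill-equation fit of competition curves; Ki by Cheng-Prusoff using radioligand concentration and Kd (from Scatchard plot).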
# [7] = molecular target: T5, 5-HT2A receptor (Homo sapiens, UniProt P28223); assay: Radioligand binding assay, serotoninergic 5-HT2A receptors; conditions: for inhibition at 1 µM: binding assay result in %, Table 5a; for Ki: read-out: Inhibition constants Ki, 5-HT2A
# T5 construct: purchased PerkinElmer
# T5 sequence (P28223 whole entry): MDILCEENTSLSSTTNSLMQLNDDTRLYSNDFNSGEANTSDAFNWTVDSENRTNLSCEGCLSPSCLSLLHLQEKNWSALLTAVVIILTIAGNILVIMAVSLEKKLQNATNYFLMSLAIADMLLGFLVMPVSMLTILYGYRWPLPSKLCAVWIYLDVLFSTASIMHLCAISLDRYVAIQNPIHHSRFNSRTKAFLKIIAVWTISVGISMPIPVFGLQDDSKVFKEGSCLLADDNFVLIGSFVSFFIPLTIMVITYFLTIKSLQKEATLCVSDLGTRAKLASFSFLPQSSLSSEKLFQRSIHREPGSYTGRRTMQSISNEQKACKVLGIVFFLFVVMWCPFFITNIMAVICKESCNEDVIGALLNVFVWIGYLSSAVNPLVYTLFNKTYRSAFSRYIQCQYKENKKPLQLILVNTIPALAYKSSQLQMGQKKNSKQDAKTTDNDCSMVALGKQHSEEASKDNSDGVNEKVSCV
# Summary of the method: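 Competition curves from scintillation-counted specific binding (total minus binding with excess unlabelled ligand) were Hill-fitted to give IC50, converted to Ki via Cheng-Prusoff using Scatchard-derived Kd.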
# [8] = molecular target: dopaminergic receptors D2 (Homo sapiens, UniProt P14416); assay: Radioligand binding assay, dopaminergic D2 receptors; conditions: for inhibition at 1 µM: binding assay, test compound 1×10^−6 M; for Ki: read-out: Inhibition constants Ki for D2 receptors, D2
# dopaminergic receptors D2, sequence (P14416 whole entry): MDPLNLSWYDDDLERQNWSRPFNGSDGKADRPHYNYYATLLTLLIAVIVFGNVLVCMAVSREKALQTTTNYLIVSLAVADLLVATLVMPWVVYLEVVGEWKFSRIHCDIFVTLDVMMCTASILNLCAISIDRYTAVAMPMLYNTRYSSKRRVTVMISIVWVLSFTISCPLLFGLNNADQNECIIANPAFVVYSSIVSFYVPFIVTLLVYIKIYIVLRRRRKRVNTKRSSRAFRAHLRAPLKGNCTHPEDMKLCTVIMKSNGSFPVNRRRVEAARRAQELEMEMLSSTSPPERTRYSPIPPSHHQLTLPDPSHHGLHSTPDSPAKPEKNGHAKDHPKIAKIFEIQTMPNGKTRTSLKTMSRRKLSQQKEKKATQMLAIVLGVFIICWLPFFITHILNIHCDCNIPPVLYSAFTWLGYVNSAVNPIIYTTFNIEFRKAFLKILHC
# Summary of the method: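 Values derive from competition curves: percent inhibition of control specific binding was fitted by Hill non-linear regression for IC50, and Ki calculated with Cheng–Prusoff from radioligand concentration and KD (Scatchard). Bound ligand was detected by scintillation counting.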
# [9] = molecular target: T6, M3 muscarinic receptors (Homo sapiens, UniProt P20309); assay: Radioligand binding assay, muscarinic M3 receptors; conditions: test compound 1×10^−6 M
# T6 construct: expressed in transfected cells; host or cells: CHO cells
# T6 sequence (P20309 whole entry): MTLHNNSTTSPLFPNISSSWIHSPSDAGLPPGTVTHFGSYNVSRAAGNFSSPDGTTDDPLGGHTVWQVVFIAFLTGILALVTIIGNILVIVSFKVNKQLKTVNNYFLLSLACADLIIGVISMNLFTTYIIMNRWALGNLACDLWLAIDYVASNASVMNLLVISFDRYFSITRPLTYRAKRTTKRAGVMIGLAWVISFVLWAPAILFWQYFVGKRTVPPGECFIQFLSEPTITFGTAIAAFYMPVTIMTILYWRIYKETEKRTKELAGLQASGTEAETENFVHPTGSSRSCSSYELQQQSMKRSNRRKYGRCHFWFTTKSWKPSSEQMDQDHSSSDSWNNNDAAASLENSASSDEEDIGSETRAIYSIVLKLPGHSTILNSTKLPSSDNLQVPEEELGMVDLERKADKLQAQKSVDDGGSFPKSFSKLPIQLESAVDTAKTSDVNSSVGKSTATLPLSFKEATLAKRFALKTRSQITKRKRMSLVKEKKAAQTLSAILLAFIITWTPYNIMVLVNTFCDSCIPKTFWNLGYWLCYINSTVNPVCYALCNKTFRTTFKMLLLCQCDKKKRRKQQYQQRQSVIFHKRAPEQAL
# Summary of the method: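 Radioligand competition binding, detected by scintillation counting; non-specific binding defined with excess unlabelled ligand. Results given as % inhibition of control specific binding; IC50 from Hill-equation fit of competition curves, Ki via Cheng-Prusoff with radioligand KD from Scatchard plot.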
Compound,inhibition at 1 µM [1],inhibition at 1 µM [2],inhibition at 1 µM [3],α1 [%] [4],inhibition at 1 µM [5],inhibition at 1 µM [6],inhibition at 1 µM [7],inhibition at 1 µM [8],inhibition at 1 µM [9],Ki [5],Ki [7],Ki [8],Ki [1]
"O=S(=O)(NCC1CCN(CCOc2cccc3c2OCCO3)C1)c1ccc(F)cc1 (centres unmarked) [Compound 300, N-[[1-[2-(2,3-Dihydro-1,4-benzodioxin-5-yloxy)ethyl]pyrrolidin-3-yl]-methyl]-4-fluoro-benzenesulphonamide]",64%,52%,30%,83%,38%,28%,72%,35%,-2%,,,,
"O=S(=O)(NCC1CN(CCOc2cccc3c2OCCO3)C1)c1ccc(Cl)c(Cl)c1 [Compound 183, 3,4-Dichloro-N-[[1-[2-(2,3-dihydro-1,4-benzodioxin-5-yloxy)ethyl]azetidin-3-yl]methyl]benzenesulphonamide]",48%,80%,79%,85%,81%,42%,94%,92%,13%,,,,
"O=S(=O)(N[C@H]1CCN(CCCc2noc3cc(F)ccc23)C1)c1cc2ccccc2o1 [Compound 215, N-[(3S)-1-[3-(6-Fluoro-1,2-benzoxazol-3-yl)propyl]pyrrolidin-3-yl]benzo-furan-2-sulphonamide]",35%,88%,85%,89%,93%,50%,,97%,39%,21 nM,1.2 nM,3 nM,
"Cc1cccc(S(=O)(=O)NC2CCN(CCCc3c[nH]c4ccc(F)cc34)C2)c1 (centres unmarked) [Compound 78, N-[1-[3-(5-Fluoro-1H-indol-3-yl)propyl]pyrrolidin-3-yl]-3-methyl-benzenesulphonamide]",101%,79%,98%,39%,94%,65%,95%,89%,5%,42 nM,,,1 nM
"Cn1ccc2cc(S(=O)(=O)NCC3CCN(CCOc4cccc5c4OCCO5)C3)ccc21 (centres unmarked) [Compound 308, N-[[1-[2-(2,3-Dihydro-1,4-benzodioxin-5-yloxy)ethyl]pyrrolidin-3-yl]methyl]-1-methyl-indole-5-sulphonamide]",95%,26%,43%,69%,44%,37%,91%,57%,13%,,,,
"O=S(=O)(NC1CCN(CCCc2c[nH]c3ccc(F)cc23)C1)c1ccc(F)cc1 (centres unmarked) [Compound 75, 4-Fluoro-N-[1-[3-(5-fluoro-1H-indol-3-yl)propyl]pyrrolidin-3-yl]benzene-sulphonamide]",103%,76%,86%,45%,94%,57%,90%,91%,17%,34 nM,,,1.5 nM
"Cc1cc(S(=O)(=O)N[C@H]2CCN(CCCc3noc4cc(F)ccc34)C2)c(C)s1 [Compound 223, N-[(3S)-1-[3-(6-Fluoro-1,2-benzoxazol-3-yl)propyl]pyrrolidin-3-yl]-2,5-dimethyl-thiophene-3-sulphonamide]",17%,92%,57%,86%,94%,52%,99%,89%,25%,,,,
"O=S(=O)(N[C@H]1CCN(CCCc2noc3cc(F)ccc23)C1)c1ccc2ccccc2c1 [Compound 207, N-[(3S)-1-[3-(6-Fluoro-1,2-benzoxazol-3-yl)propyl]pyrrolidin-3-yl]-naphthalene-2-sulphonamide]",58%,85%,85%,95%,101%,65%,100%,101%,12%,7.7 nM,0.5 nM,3.8 nM,
"O=S(=O)(N[C@@H]1CCN(CCCc2noc3cc(F)ccc23)C1)c1cc2ccccc2s1 [Compound 196, N-[(3R)-1-[3-(6-Fluoro-1,2-benzoxazol-3-yl)propyl]pyrrolidin-3-yl]benzo-thiophene-2-sulphonamide]",42%,78%,94%,95%,99%,84%,100%,100%,11%,6.4 nM,0.4 nM,0.8 nM,
"Cc1c(S(=O)(=O)N[C@H]2CCN(CCCc3noc4cc(F)ccc34)C2)sc2ccc(F)cc12 [Compound 203, 5-Fluoro-N-[(3S)-1-[3-(6-fluoro-1,2-benzoxazol-3-yl)propyl]pyrrolidin-3-yl]-3-methyl-benzothiophene-2-sulphonamide]",73%,78%,95%,91%,100%,67%,99%,101%,12%,12 nM,0.7 nM,0.9 nM,
"O=S(=O)(NCC1CCN(CCOc2cccc3c2OCCO3)C1)c1ccc(C(F)(F)F)cc1 (centres unmarked) [Compound 293, N-[[1-[2-(2,3-Dihydro-1,4-benzodioxin-5-yloxy)ethyl]pyrrolidin-3-yl]methyl]-4-(trifluoromethyl)benzenesulphonamide]",82%,35%,60%,77%,47%,38%,86%,66%,10%,,,,
"Cc1cc(S(=O)(=O)NCC2CCN(CCOc3cccc4c3OCCO4)C2)c(C)s1 (centres unmarked) [Compound 312, N-[[1-[2-(2,3-Dihydro-1,4-benzodioxin-5-yloxy)ethyl]pyrrolidin-3-yl]methyl]-2,5-dimethylthiophene-3-sulphonamide]",87%,52%,36%,65%,19%,35%,87%,36%,10%,,,,
"O=S(=O)(NC1CCN(CCCc2c[nH]c3ccc(Cl)cc23)C1)c1cccc(Cl)c1 (centres unmarked) [Compound 84, 3-Chloro-N-[1-[3-(5-chloro-1H-indol-3-yl)propyl]pyrrolidin-3-yl]benzenesulphonamide]",104%,94%,99%,51%,96%,79%,78%,89%,3%,18 nM,,,2.6 nM
